The target of one experiment is T1, human P2X4 (Homo sapiens, UniProt Q99571).
T1 construct: expressed in transfected cells
T1 sequence (Q99571 1-388): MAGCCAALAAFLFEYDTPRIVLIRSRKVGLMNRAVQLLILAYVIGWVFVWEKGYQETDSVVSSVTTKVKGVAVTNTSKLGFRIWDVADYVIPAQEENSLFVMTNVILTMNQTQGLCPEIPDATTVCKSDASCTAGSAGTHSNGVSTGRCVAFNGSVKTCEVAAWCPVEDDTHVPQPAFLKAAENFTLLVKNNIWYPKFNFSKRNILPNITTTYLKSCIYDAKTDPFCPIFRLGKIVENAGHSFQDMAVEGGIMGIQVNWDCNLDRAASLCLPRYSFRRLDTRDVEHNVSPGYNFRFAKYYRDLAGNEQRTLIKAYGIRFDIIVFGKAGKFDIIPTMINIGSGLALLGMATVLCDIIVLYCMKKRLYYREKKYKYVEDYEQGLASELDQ
Nature of the experiment: Human P2X4 HEK Cell FLIPR Assay. Format: cell-based. The settings on record: HEK293 stably expressing human P2X4, agonist Bz-ATP 3 μM (EC80); for IC50: read-out: Human P2X4 HEK Cells (FLIPR Assay) avg IC50. The essentials: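 HEK293 cells stably expressing human P2X4 were loaded with Fluo8-AM (30 min, 37 °C, HBSS/HEPES pH 7.4 with probenecid), then preincubated 30 min at room temperature with compound, 25 μM–1 nM final, 0.5% DMSO. Bz-ATP-evoked calcium fluorescence was read on FLIPR; data were normalized to agonist control and given a four-parameter fit for IC50.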

The target of the next experiment is T2, rat P2X4 (Rattus norvegicus, UniProt P51577).
T2 construct: expressed in transfected cells
T2 sequence (P51577 1-388): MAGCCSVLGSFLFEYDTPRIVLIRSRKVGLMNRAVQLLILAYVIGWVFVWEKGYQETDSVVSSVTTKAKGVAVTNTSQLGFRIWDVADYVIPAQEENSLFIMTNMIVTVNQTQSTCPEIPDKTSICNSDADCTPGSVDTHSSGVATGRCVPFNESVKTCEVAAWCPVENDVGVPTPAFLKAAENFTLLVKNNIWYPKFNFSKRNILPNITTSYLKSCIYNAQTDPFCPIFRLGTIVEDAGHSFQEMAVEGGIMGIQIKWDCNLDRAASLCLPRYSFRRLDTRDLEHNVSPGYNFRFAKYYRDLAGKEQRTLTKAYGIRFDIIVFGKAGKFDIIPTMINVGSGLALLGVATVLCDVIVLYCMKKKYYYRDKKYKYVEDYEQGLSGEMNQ
In words: FLIPR Method for Rat P2X4 1321N1 Astrocytoma Cells. Type of experiment: cell-based. The following applies: 1321N1 stably expressing rat P2X4; agonist MgATP 5 μM (EC80). The protocol:
Compounds were tested on a 1321N1 cell line stably expressing rat P2X4. Cells were cultured on collagen-I-coated 384-well plates at a density of 10,000 cells/well and incubated overnight at 37° C., 5% CO2. P2X4 function was assessed by measuring intracellular calcium fluxes caused by Magnesium-ATP (MgATP) using the calcium-chelating dye Fluo8-AM (Molecular Devices) with the Fluorescent Imaging Plate Reader Tetra (FLIPR^Tetra; Molecular Devices CA). On the day of the assay, the medium was removed and the cells were incubated for 30 minutes at 37° C. and 5% CO2 in 30 μl of dye buffer (Hank's balanced salt solution, 10 mM HEPES, 1.8 mM CaCl2, 1 mM MgCl2, 2 mM probenecid, 5 mM D-glucose monohydrate, 5 μM Fluo8-AM, pH=7.4).
Compounds diluted in probenecid buffer (Hank's balanced salt solution, 10 mM HEPES, 1.8 mM CaCl2, 1 mM MgCl2, 2 mM probenecid, 5 mM D-glucose monohydrate, pH=7.4) at ten concentrations ranging from 25 μM to 1 nM (final concentration) were dispensed and incubated for 30 minutes at room temperature. The agonist, MgATP (Sigma-Aldrich Chemie GmbH, DE), was added at a final concentration of 5 μM, representing the EC80 routinely determined. The final assay volume was 50 μl and final DMSO concentration was 0.5%.
The fluorescence intensity reflecting intracellular calcium changes was recorded before and after MgATP addition, at an excitation and emission wavelengths of 470-495 nm and 515-575 nm respectively.
The compounds were tested in triplicates and fluorescence intensity raw data normalized to the agonist control and fitted to the four-parameter logistic equation:
Y=Bottom+(Top−Bottom)/(1+10^((Log IC50−X)*HillSlope))
Assay plate acceptance was based on the signal window (S/B)[…] and the reference compound pIC50 within ±[…] the mean of historic pIC50 of the compound. Failure to meet two of the three criteria determined exclusion of the plate's results. In Table 10 below the results for the assays are reported

With `CC(=O)N(c1ccc(F)cc1)c1cc(NC(=O)Cc2c(F)cc(F)cc2Cl)ccn1` [Example 41, N-{4-[2-(2-chloro-4,6-difluorophenyl)acetamido]pyridin-2-yl}-N-(4-fluorophenyl)acetamide], at human P2X4, the “Human P2X4 HEK Cells (FLIPR Assay) avg Efficacy” value (“Human P2X4 HEK Cells” for short) amounted to 94% and the IC50 (commonly the concentration at which inhibition is half-maximal) was determined as 589 nM. At rat P2X4, the IC50 amounted to 115 nM and the “Rat P2X4 1321N1 Astrocytoma Cells (FLIPR Assay) avg Efficacy” value (shortened to “Rat P2X4 1321N1 Astrocytoma Cells”) is on record as 91%.

Take `CC(=O)N(c1ccc(F)cc1)c1cc(NC(=O)Cc2ccccc2OC(F)(F)F)ccn1` [Example 42, N-(4-fluorophenyl)-N-(4-{2-[2-(trifluoromethoxy)phenyl]acetamido}pyridin-2-yl)acetamide]: at human P2X4, the “Human P2X4 HEK Cells” value is 98% and the IC50 came out at 350 nM. At rat P2X4, the IC50 was 1360 nM and the “Rat P2X4 1321N1 Astrocytoma Cells” value is listed as 96%.

On to `CC(=O)N(c1ccc(C)cc1)c1cc(NC(=O)Cc2cccc(F)c2Cl)ccn1` [Example 45, N-{4-[2-(2-chloro-3-fluorophenyl)acetamido]pyridin-2-yl}-N-(4-methylphenyl)acetamide], for which, on human P2X4, the “Human P2X4 HEK Cells” value was found to be 102% and the IC50 stood at 485 nM. Besides, at rat P2X4, the IC50 was 1180 nM and the “Rat P2X4 1321N1 Astrocytoma Cells” value is on record as 100%.

For `CC(=O)N(c1ccc(F)c(Cl)c1)c1cc(NC(=O)Cc2ccccc2Cl)ccn1` [Example 50, N-(3-chloro-4-fluorophenyl)-N-{4-[2-(2-chlorophenyl)acetamido]pyridin-2-yl}acetamide], at human P2X4, the “Human P2X4 HEK Cells” value came out at 95% and the IC50 came to 351 nM. In addition, at rat P2X4, the IC50 was found to be 213 nM and the “Rat P2X4 1321N1 Astrocytoma Cells” value amounted to 96%.

On to `CC(=O)N(c1ccc(F)c(Cl)c1)c1cc(NC(=O)Cc2ccc(F)cc2Cl)ccn1` [Example 51, N-(3-chloro-4-fluorophenyl)-N-{4-[2-(2-chloro-4-fluorophenyl)acetamido]pyridin-2-yl}acetamide], for which, at human P2X4, the “Human P2X4 HEK Cells” value worked out at 98% and the IC50 is 493 nM. For the same molecule, at rat P2X4, the IC50 is 177 nM and the “Rat P2X4 1321N1 Astrocytoma Cells” value was 96%.

`CC(=O)N(c1ccc(F)c(Cl)c1)c1cc(NC(=O)Cc2cccc(F)c2Cl)ccn1` [Example 52, N-(3-chloro-4-fluorophenyl)-N-{4-[2-(2-chloro-3-fluorophenyl)acetamido]pyridin-2-yl}acetamide]: on human P2X4, the “Human P2X4 HEK Cells” value was found to be 98% and the IC50 came out at 355 nM. Besides, at rat P2X4, the IC50 worked out at 358 nM and the “Rat P2X4 1321N1 Astrocytoma Cells” value is reported as 99%.

Turning to `CC(=O)N(c1ccc(F)c(Cl)c1)c1cc(NC(=O)Cc2c(Cl)cccc2Cl)ccn1` [Example 53, N-(3-chloro-4-fluorophenyl)-N-{4-[2-(2,6-dichlorophenyl)acetamido]pyridin-2-yl}acetamide], at human P2X4, the “Human P2X4 HEK Cells” value came out at 100% and the IC50 turned out to be 455 nM. Also, on rat P2X4, the IC50 came out at 143 nM and the “Rat P2X4 1321N1 Astrocytoma Cells” value is on record as 100%.

As for `CC(=O)N(c1cccc(F)c1)c1cc(NC(=O)Cc2ccccc2Cl)ccn1` [Example 54, N-{4-[2-(2-chlorophenyl)acetamido]pyridin-2-yl}-N-(3-fluorophenyl)acetamide], on human P2X4, the “Human P2X4 HEK Cells” value is on record as 97% and the IC50 was 269 nM. Further, at rat P2X4, the IC50 turned out to be 447 nM and the “Rat P2X4 1321N1 Astrocytoma Cells” value amounted to 97%.

As for `CC(=O)N(c1cccc(F)c1)c1cc(NC(=O)Cc2ccc(F)cc2Cl)ccn1` [Example 55, N-{4-[2-(2-chloro-4-fluorophenyl)acetamido]pyridin-2-yl}-N-(3-fluorophenyl)acetamide], at human P2X4, the “Human P2X4 HEK Cells” value is on record as 102% and the IC50 worked out at 611 nM. Besides, on rat P2X4, the IC50 stood at 289 nM and the “Rat P2X4 1321N1 Astrocytoma Cells” value came to 99%.

Regarding `CC(=O)N(c1cccc(F)c1)c1cc(NC(=O)Cc2c(Cl)cccc2Cl)ccn1` [Example 56, N-{4-[2-(2,6-dichlorophenyl)acetamido]pyridin-2-yl}-N-(3-fluorophenyl)acetamide], at human P2X4, the “Human P2X4 HEK Cells” value is listed as 97% and the half-maximal inhibitory concentration (IC50) worked out at 260 nM. On rat P2X4, the IC50 was found to be 190 nM and the “Rat P2X4 1321N1 Astrocytoma Cells” value stood at 98%.

As to `CC(=O)N(c1cccc(F)c1)c1cc(NC(=O)Cc2c(Cl)cc(F)cc2Cl)ccn1` [Example 57, N-{4-[2-(2,6-dichloro-4-fluorophenyl)acetamido]pyridin-2-yl}-N-(3-fluorophenyl)acetamide], on human P2X4, the “Human P2X4 HEK Cells” value was 99% and the IC50 came to 377 nM. Further, at rat P2X4, the IC50 stood at 122 nM and the “Rat P2X4 1321N1 Astrocytoma Cells” value is recorded as 97%.

In the case of `CC(=O)N(c1ccc(Cl)c(F)c1)c1cc(NC(=O)Cc2ccccc2Cl)ccn1` [Example 58, N-(4-chloro-3-fluorophenyl)-N-{4-[2-(2-chlorophenyl)acetamido]pyridin-2-yl}acetamide], on human P2X4, the “Human P2X4 HEK Cells” value was found to be 95% and the IC50 was 351 nM. Also, on rat P2X4, the IC50 was determined as 350 nM and the “Rat P2X4 1321N1 Astrocytoma Cells” value is given as 86%.

For the molecule `CC(=O)N(c1ccc(Cl)c(F)c1)c1cc(NC(=O)Cc2ccc(F)cc2Cl)ccn1` [Example 59, N-(4-chloro-3-fluorophenyl)-N-{4-[2-(2-chloro-4-fluorophenyl)acetamido]pyridin-2-yl}acetamide], on human P2X4, the “Human P2X4 HEK Cells” value came to 97% and the IC50 came to 532 nM. For the same molecule, at rat P2X4, the IC50 was 240 nM and the “Rat P2X4 1321N1 Astrocytoma Cells” value was 81%.

Consider `CC(=O)N(c1ccc(Cl)c(F)c1)c1cc(NC(=O)Cc2cccc(F)c2Cl)ccn1` [Example 60, N-(4-chloro-3-fluorophenyl)-N-{4-[2-(2-chloro-3-fluorophenyl)acetamido]pyridin-2-yl}acetamide], for which, on human P2X4, the “Human P2X4 HEK Cells” value is recorded as 96% and the IC50 turned out to be 454 nM. On rat P2X4, the IC50 was found to be 434 nM and the “Rat P2X4 1321N1 Astrocytoma Cells” value is reported as 94%.

For `CC(=O)N(c1ccc(F)c(F)c1)c1cc(NC(=O)Cc2cccc(C)c2C)ccn1` [Example 62, N-(3,4-difluorophenyl)-N-{4-[2-(2,3-dimethylphenyl)acetamido]pyridin-2-yl}acetamide], on human P2X4, the “Human P2X4 HEK Cells” value was found to be 91% and the IC50 stood at 251 nM. On rat P2X4, the IC50 amounted to 368 nM and the “Rat P2X4 1321N1 Astrocytoma Cells” value is listed as 91%.

Take `CC(=O)N(c1ccc(F)c(F)c1)c1cc(NC(=O)Cc2ccccc2C(F)(F)F)ccn1` [Example 63, N-(3,4-difluorophenyl)-N-(4-{2-[2-(trifluoromethyl)phenyl]acetamido}pyridin-2-yl)acetamide]: at human P2X4, the “Human P2X4 HEK Cells” value amounted to 97% and the IC50 is 424 nM. Also, on rat P2X4, the IC50 came to 372 nM and the “Rat P2X4 1321N1 Astrocytoma Cells” value turned out to be 97%.

Values taken from US20230257351A1, “SUBSTITUTED N-[…] HAVING P2X4 RECEPTOR ANTAGONISTIC ACTIVITY” (Bayer Aktiengesellschaft, priority 2020, published 2023).
